Reference: patent publication US9732091B2, “Tryptophanol-derived oxazoloisoindolinones: small-molecule P53 activators” (UNIVERSIDADE DO PORTO, priority 2013, dated 2017)

Assays:
HCT116 p53^+/+ = experiment: SRB growth inhibition assay in HCT116 p53^+/+ colon carcinoma cells; type: cell-based, human; details: for GI50: HCT116 p53^+/+, 48 hours incubation, SRB, mean±S.E.M.
Protocol: (§1) Tumor cells were plated at 5.0×10^3 cells/well in 96-well plates and incubated for 24 hours. Cells were then exposed to serial dilutions of SLMP53-1, CP-31398 or PRIMA-1 (from 1.85 to 150 μM). The effect of the compounds was analyzed following 48 hours incubation, using the sulforhodamine B (SRB) assay. The solvent DMSO corresponding to the maximum concentration used in these assays (0.025%) was included as control. The GI50 value, the concentration of compound that causes 50% growth inhibition, was calculated for the tested compounds. Results are the mean±S.E.M. of three independent experiments.

HCT116 p53^−/− = experiment: SRB growth inhibition assay in HCT116 p53^−/− colon carcinoma cells; type: cell-based, human; details: 48 hours incubation, mean±S.E.M.
Protocol: as §1

MDA-MB-231 (p53R280K) = experiment: SRB growth inhibition assay in MDA-MB-231 breast cancer cells; type: cell-based, human; details: 48 hours incubation, mean±S.E.M.
Protocol: as §1, with “7.5×10^3” for “5.0×10^3”, “incubation period,” for “incubation,”, “value, which is” for “value,”

HCT116 p53^+/+ cells [1] = experiment: cell cycle analysis by flow cytometry (propidium iodide), HCT116 p53^+/+; type: cell-based, human; details: double GI50, 24 hours
Protocol: FIG. 3 illustrates the effect of SLMP53-1 on cell cycle progression of HCT116 p53^+/+ cells. Cell cycle phases were analyzed by flow cytometry using propidium iodide and quantified using ModFit LT software (Verity Software House Inc., Topsham, USA). Effect of compounds (double GI50) was analyzed after 24 hours treatment. Histograms represent one of two independent experiments; quantification of cell cycle phases represents the mean±S.E.M. of two independent experiments.

HCT116 p53^+/+ cells [2] = experiment: apoptosis by flow cytometry (FITC-Annexin V and propidium iodide), HCT116 p53^+/+; type: cell-based, human; details: GI50 and double GI50, 24 hours
Protocol: (§2) Apoptosis was analyzed by flow cytometry using FITC-Annexin V and propidium iodide. The effect of compounds was analyzed after 24 hours treatment using the concentration of GI50 and double GI50. Histograms represent one of two independent experiments; quantification of cells in apoptosis represents the mean±S.E.M. of two independent experiments.

MDA-MB-231 cells = experiment: apoptosis by flow cytometry (FITC-Annexin V and propidium iodide), MDA-MB-231; type: cell-based, human; details: GI50, 24 hours
Protocol: as §2, with “of” for “of GI50 and double”

[3] = Rippin et al. 2002; Jonhson et al. 2011; cited from earlier work
human wt p53 = molecular target: T1, human wt p53 (Homo sapiens, UniProt P04637); experiment: yeast-based assay, yeast cells expressing human wt p53 (growth by CFU counts, cell cycle, actin Western blot)
T1 construct: expressed in transfected cells
T1 sequence (P04637 whole entry): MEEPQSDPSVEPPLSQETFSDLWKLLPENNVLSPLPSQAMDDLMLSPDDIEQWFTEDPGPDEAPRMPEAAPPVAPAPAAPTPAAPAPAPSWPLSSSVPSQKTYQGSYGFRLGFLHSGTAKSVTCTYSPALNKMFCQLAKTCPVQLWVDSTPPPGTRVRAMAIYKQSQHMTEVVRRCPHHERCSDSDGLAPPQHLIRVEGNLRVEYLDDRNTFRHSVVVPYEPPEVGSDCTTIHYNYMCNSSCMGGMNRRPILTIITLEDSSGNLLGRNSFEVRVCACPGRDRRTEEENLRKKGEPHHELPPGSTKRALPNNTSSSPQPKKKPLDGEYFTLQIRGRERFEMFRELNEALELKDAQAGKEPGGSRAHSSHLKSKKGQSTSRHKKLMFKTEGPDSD
Protocol: FIG. 1 illustrates that SLMP53-1 and SLMP53-2 increase the p53 effects in yeast. Yeast cells expressing human wt p53 and transformed with the empty vector (control yeast) were incubated in selective induction medium in the presence of 0.1-25 μM compound or DMSO only, for 42 hours. (A) Effect of 10 μM SLMP53-1 and SLMP53-2 on the p53-induced yeast growth inhibition. Results are plotted setting as one unit the p53-induced growth inhibition in the presence of DMSO only. Growth was estimated by colony-forming unit (CFU) counts. […] (B) Dose-response curve for SLMP53-1 in yeast cells expressing human p53 and control yeast. Cells were incubated in selective medium with 0.1-25 μM of SLMP53-1 or DMSO only. Results are plotted setting as 100% growth inhibition the number of CFU obtained in the presence of DMSO only. Data are mean±S.E.M. of three independent experiments (*P<0.05; unpaired Student's t-test). (C) Effect of SLMP53-1 and SLMP53-2 on p53-induced S-phase cell cycle arrest in yeast. Cell cycle phases were analyzed by flow cytometry using Sytox Green and quantified using ModFit LT software; quantification of cell cycle phases represent the mean values. (D) Increase of p53-induced actin protein expression levels by SLMP53-1 and SLMP53-2 in yeast expressing p53. Western Blot band intensity was quantified using Pgk1p as loading control (with Bio-Profile Bio-1D++ software).
Using a yeast-based screening approach, the chiral compounds SLMP53-1 and SLMP53-2 were identified as potential activators of wt p53, from a chemical library of tryptophanol-derived oxazoloisoindolinones with general formula (I) shown in FIG. 1, wherein X, R^1, R^2, R^3, R^4, R^5, R^6, R^7, R^8, R^9 and R^10 are as defined herein, as well as their stereoisomers, enantiomers, ra.cemates, tautomers thereof or mixtures thereof; or a pharmaceutically acceptable salt, solvate or prodrug thereof. In the yeast cell model, compounds SLMP53-1 and SLMP53-2 increased the previously reported (Coutinho et al. FEBS Lett. 2009, 583, 3582-3588) p53-induced growth inhibition (FIGS. 1A and B) and S-phase cell cycle arrest (FIG. 1C).

[4] = HCT116 p53^+/+ vs HCT116 p53^−/−

Structure (SMILES) | GI50 in HCT116 p53^+/+ cells lower than in HCT116 p53^−/− cells (HCT116 p53^+/+; [4]) [fold] | p53 dependence of anti-proliferative effect (HCT116 p53^+/+; [4]) | GI50 (HCT116 p53^+/+) [µM] | GI50 (HCT116 p53^−/−) [µM] | GI50 (MDA-MB-231 (p53R280K)) [µM] | cell cycle progression (HCT116 p53^+/+ cells [1]) | apoptosis (HCT116 p53^+/+ cells [2]) | apoptosis (MDA-MB-231 cells) | cytotoxic and genotoxic effects (reported) [3] | p53-induced growth inhibition (human wt p53; yeast expressing human wt p53, 10 μM, 42 hours, vs DMSO only) | p53-induced S-phase cell cycle arrest (human wt p53; yeast expressing human wt p53, flow cytometry) | actin protein levels (human wt p53; yeast expressing p53, Western blot, vs DMSO only)
COc1ccc(/C=C/c2nc(NCCCN(C)C)c3ccccc3n2)cc1 [CP-31398] | 2 | p53-dependent anti-proliferative effect | 3.4 ± 0.1 | 7.3 ± 0.6 | 2.3 ± 0.9 | G0/G1-phase cell arrest | apoptotic cell death | apoptotic cell death | cytotoxic and genotoxic effects have been reported |  |  | 
C[C@@]12OC[C@@H](Cc3c[nH]c4ccccc34)N1C(=O)c1ccccc12 [SLMP53-2] |  |  |  |  |  |  |  |  |  | increased | increased | increased the actin protein levels
O=C1C2CCN(CC2)C1(CO)CO [PRIMA-1] |  | p53-independent | 19.9 ± 4 | 13.1 ± 2 | 29.8 ± 3.1 |  |  | apoptotic cell death |  |  |  | 
